Experimental data: patent US10131643B2, “Tizoxanide carbamate and pharmaceutical use thereof” (priority 2013, dated 2018)
Values after ≈ are worked out from the molar mass of the structure shown.

Tests used:
[1] = oral administration in mice, in words; for Parameters such as Tmax, Cmax, MRT, AUC and relative bioavailability compared with nitazoxanide: calculated as tizoxanide
[2] = tested on: Mycobacterium tuberculosis; settings: cited from earlier work
[3] = in vivo, cited from earlier work
PR8 influenza virus = PR8 influenza virus in MDCK cells; cited from earlier work
Helicobacter pylori = settings: 103 strains of Helicobacter pylori; cited from earlier work
[4] = rat, in vivo, po

With `O=C(Nc1ncc([N+](=O)[O-])s1)c1ccccc1OC(=O)N1CCOCC1` [Compound 1, 2-(5-nitrothiazol-2-yl-carbamoyl)phenylmorpholine-4-carboxylate] the “Parameters such as Tmax, Cmax, MRT, AUC and relative bioavailability compared with nitazoxanide” value [1] was “significantly superior” and the “Oral absorption compared with the control agent nitazoxanide (NTZ)” value [1] was “much better”.
With `CN1CCN(C(=O)Oc2ccccc2C(=O)Nc2ncc([N+](=O)[O-])s2)CC1` [Compound 2, 2-(5-nitrothiazol-2-yl-carbamoyl)phenyl-4-methylpiperazine-1-carboxylate] the “Parameters such as Tmax, Cmax, MRT, AUC and relative bioavailability compared with nitazoxanide” value [1] was “significantly superior” and the “Oral absorption compared with the control agent nitazoxanide (NTZ)” value [1] was “faster”.
With `O=C(Nc1ncc([N+](=O)[O-])s1)c1ccccc1OC(=O)N1CCCCC1` [Compound 3] the “Parameters such as Tmax, Cmax, MRT, AUC and relative bioavailability compared with nitazoxanide” value [1] was “significantly superior” and the “Oral absorption compared with the control agent nitazoxanide (NTZ)” value [1] was “much better”.
For `O=C(Nc1ncc([N+](=O)[O-])s1)c1ccccc1OC(=O)N1CCCC1` [Compound 4, 2-((5-nitrothiazol-2-yl)carbamoyl)phenyl-pyrrolidine-1-carboxylate], the “Parameters such as Tmax, Cmax, MRT, AUC and relative bioavailability compared with nitazoxanide” value [1] was “significantly superior” and the “Oral absorption compared with the control agent nitazoxanide (NTZ)” value [1] was “much better”.
For `CCOC(=O)C1CCN(C(=O)Oc2ccccc2C(=O)Nc2ncc([N+](=O)[O-])s2)CC1` [Compound 5], the “Parameters such as Tmax, Cmax, MRT, AUC and relative bioavailability compared with nitazoxanide” value [1] was “comparable” and the “Oral absorption compared with the control agent nitazoxanide (NTZ)” value [1] was “faster”.
For `CN(C)C(=O)Oc1ccccc1C(=O)Nc1ncc([N+](=O)[O-])s1` [Compound 6], the “Parameters such as Tmax, Cmax, MRT, AUC and relative bioavailability compared with nitazoxanide” value [1] was “significantly superior” and the “Oral absorption compared with the control agent nitazoxanide (NTZ)” value [1] was “much better”.
In the case of `CC(=O)Oc1ccccc1C(=O)Nc1ncc([N+](=O)[O-])s1` [NTZ, 2-acetoxy-N-(5-nitro-2-thiazolyl)benzamide], the “Minimal inhibitory concentration (MIC), median value” [2] is listed as 16 µg/mL (≈ 52.1 µM), the “Detection of the parent drug in plasma, urine, bile and feces” value ([3]; po) is listed as “not detectable” and the “Part of the oral dose excreted by feces” value [3] is listed as “about ⅔”. For the same molecule, the “Part of the oral dose excreted by urine” value [3] was “about ⅓”, the EC50 (PR8 influenza virus) was 1 µg/mL (≈ 3.25 µM) and the EC90 (PR8 influenza virus) was 7 µg/mL (≈ 22.8 µM). For the same molecule, the “50% minimal inhibitory concentration (MIC50)” value (Helicobacter pylori) was 1 µg/mL, the “90% minimal inhibitory concentration (MIC90)” value (Helicobacter pylori) was 4 µg/mL and the Absolute bioavailability [4] was 7.2%.
In the case of `O=C(Nc1ncc([N+](=O)[O-])s1)c1ccccc1O` [tizoxanide], the “50% minimal inhibitory concentration (MIC50)” value (Helicobacter pylori) is listed as 1 µg/mL and the “90% minimal inhibitory concentration (MIC90)” value (Helicobacter pylori) is listed as 4 µg/mL.
